According to patent US8138119B2, “Alkoxyalkyl spirocyclic tetramic acids and tetronic acids” (Bayer Cropscience AG, priority 2005, dated 2012):

What was measured:
Type in all cases: in vivo
Conditions in all cases: 100 ppm, cabbage leaves dipped
[1] = tested on: caterpillars of the armyworm (Spodoptera exigua, resistant strain); test: Spodoptera exigua test; resistant strain (SPODEX R)
Protocol: (§1) Solvent: 7 parts by weight of dimethylformamide
(§2) Emulsifier: 2 parts by weight of alkylaryl polyglycol ether
(§3) To produce a suitable preparation of active compound, 1 part by weight of active compound is mixed with the stated amounts of solvent and emulsifier, and the concentrate is diluted with emulsifier-containing water to the desired concentration.
Cabbage leaves (Brassica oleracea) are treated by being dipped into the active compound preparation of the desired concentration and populated with caterpillars of the armyworm (Spodoptera exigua, resistant strain) while the leaves are still moist.
(§4) After the desired period of time, the kill in % is determined. 100% means that all caterpillars have been killed; 0% means that none of the caterpillars have been killed.

[2] = tested on: caterpillars of the diamondback moth (Plutella xylostella); test: Plutella test (PLUTMA)
Protocol: as §1, §2, §3
Cabbage leaves (Brassica oleracea) are treated by being dipped into the active compound preparation of the desired concentration and populated with caterpillars of the diamondback moth (Plutella xylostella) while the leaves are still moist.
as §4

[3] = tested on: caterpillars of the armyworm (Spodoptera exigua); test: Spodoptera exigua test (SPODEX)
Protocol: as §1, §2
To produce a suitable preparation of active compound, 1 part by weight of active compound is mixed with the stated amounts of solvent and emulsifier, and the concentrate is diluted with water to the desired concentration.
Cabbage leaves (Brassica oleracea) are treated by being dipped into the active compound preparation of the desired concentration and populated with caterpillars of the armyworm (Spodoptera exigua) while the leaves are still moist.
as §4

Measured: efficacy (kill of caterpillars)

COCC1CCC2(CC1)NC(=O)C(c1cc(-c3ccc(Cl)cc3)ccc1C)=C2O (single isomer, unassigned) [Example I-1-a-5]
≥ 80%: all assays above
